# Results taken from patent EP0863769B1 (priority 1996, dated 1998).
# Molecular target: A/England/12/64
# Format: binding, Influenza Viren
# Details: read-out: Affinität der Bindung an Virus, Kaff
substance,measurement,value
Poly-N-(2-Hydroxyethyl)-acrylamid mit 20% mol. 6SLN [6SLN-PAA],Kd,100 nM
